Assays:
Assay type in all cases: cell-based
[1] = system: DENV-1 strain TC974#666; test: Tetravalent RT-qPCR assay Protocol A, serotype 1; settings: Dengue virus, DENV1, 72 h, RT-qPCR serotype 1 TC974#666, Vero cells, day 3
Experimental: (§1) The antiviral activity of the compounds of the invention was tested against DENV-1 strain TC974#666 (NCPV), DENV-2 strain 16681, DENV-3 strain H87 (NCPV) and DENV-4 strains H241 (NCPV) and EDEN (SG/06K2270DK1/2005; GenBank accession number QG398256) in a RT-qPCR assay. Therefore, Vero cells were infected with either DENV-1, or -2, or -3, or -4 in the presence or absence of test compounds. At day 3 post-infection, the cells were lysed and cell lysates were used to prepare cDNA of both a viral target (the 3′UTR of DENV; table 2) and a cellular reference gene (β-actin, table 2). Subsequently, a duplex real time PCR was performed on a Lightcycler480 instrument. The generated Cp value is inversely proportional to the amount of RNA expression of these targets. Inhibition of DENV replication by a test compound result in a shift of Cp's for the 3′UTR gene. On the other hand, if a test compound is toxic to the cells, a similar effect on β-actin expression will be observed. The comparative ΔΔCp method is used to calculate EC50, which is based on the relative gene expression of the target gene (3′UTR) normalized with the cellular housekeeping gene (β-actin). In addition, CC50 values were determined based on the Cp values acquired for the housekeeping gene β-actin.
(§2) The culture medium consisted of minimal essential medium supplemented with 2% of heat-inactivated fetal calf serum, 0.04% gentamycin (50 mg/mL) and 2 mM of L-glutamine. Vero cells, obtained from ECACC, were suspended in culture medium and 75 μL/well was added in 96-well plates (10000 cells/well), which already contain the antiviral compounds. Typically, these plates contain a 4-fold serial dilution of 9 dilution steps of the test compound at 200 times the final concentration in 100% DMSO (500 nL; final concentration range: 25 μM-0.00038 μM). In addition, each plate contains wells which are assigned as virus controls (containing cells and virus in the absence of compound) and cell controls (containing cells in the absence of virus and compound). Once the cells were added in the plates, the plates were incubated in a fully humidified incubator (37° C., 5% CO2) until the next day. Then, DENV-1 strain TC974#666, DENV-2 strain 16681, DENV-3 strain H87 or DENV-4 strains H241 or EDEN were added. […] In parallel, 25 μL of culture medium was added to the cell controls. Next, the plates were incubated for 3 days in a fully humidified incubator (37° C., 5% CO2). After 3 days, the supernatant was removed from the wells and the cells were washed twice with ice-cold PBS (˜100 μL). The cell pellets within the 96-well plates were stored at −80° C. for at least 1 day. Next, RNA was extracted using the Cells-to-CT™ lysis kit, according to the manufacture's guideline (Applied Biosystems). The cell lysates can be stored at −80° C. or immediately used in the reverse transcription step. In preparation of the reverse transcription step, mix A (table 3A) was prepared and 7.57 μL/well was dispensed in a 96-well plate. After addition of 5 μL of the cell lysates, a five minute denaturation step at 75° C. was performed (table 3B). Afterwards, 7.43 μL of mix B was added (table 3C) and the reverse transcription step was initiated (table 3D) to generate cDNA.
(§3) Finally, a RT-qPCR mix was prepared, mix C (table 4A), dispensed in 96-well LightCycler qPCR plates to which 3 μL of cDNA was added and the qPCR was performed according to the conditions in table 4B on a LightCycler 480. Using the LightCycler software and an in-house LIMS system, dose response curves for each compound were calculated and the half maximal effective concentration (EC50) and the half maximal cytotoxic concentration (CO50) were determined (Tables 6-9).

[2] = system: DENV-3 strain H87; test: Tetravalent RT-qPCR assay Protocol A, serotype 3; settings: Dengue virus, DENV3, 72 h, RT-qPCR serotype 3 H87, Vero cells, day 3
Experimental: as §1, §2, §3

[3] = system: DENV-1 Djibouti strain D1/H/IMTSSA/98/606; test: Tetravalent RT-qPCR assay Protocol B, serotype 1; settings: Dengue virus, DENV1, Vero, 168 h
Experimental: (§4) Vero cells (4×10^4) were seeded in 96-well plates. […] Following a 2 hour incubation period, the cell monolayer was washed 3 times with assay medium to remove residual, non-adsorbed virus and cultures were further incubated for either 4 days (DENV-2 NGC-Tongalike) or 7 days (DENV-1 Djibouti strain D1/H/IMTSSA/98/606, DENV-3 strain H87 prototype, DENV-4 strain H241′) in the presence of the inhibitor. Supernatant was harvested and viral RNA load was determined by real-time quantitative RT-PCR. The 50% effective concentration (EC50), which is defined as the compound concentration that is required to inhibit viral RNA replication by 50%, was determined using logarithmic interpolation (Tables 7 and 8). RNA was isolated from 100 μL supernatant with the NucleoSpin 96 Virus kit (Filter Service, Duren, Germany) as described by the manufacturer. The sequences of the TaqMan primers (DENV-For, DENV-Rev; Table 5) and TaqMan probes (DENV-Probe Table 5) were selected from non-structural gene 3 (NS3) or NS5, of the respective flaviviruses using Primer Express software (version 2.0; Applied Biosystems, Lennik, Belgium). The TaqMan probe was fluorescently labelled with 6-carboxyfluorescein (FAM) at the 5′ end as the reporter dye, and with minor groove binder (MGB) at the 3′ end as the quencher (Table 5). One-step, quantitative RT-PCR was performed in a total volume of 25 μL, containing 13.9375 μL H2O, 6.25 μL master mix (Eurogentec, Seraing, Belgium), 0.375 μL forward primer, 0.375 μL reverse primer, 1 μL probe, 0.0625 μL reverse transcriptase (Eurogentec) and 3 μL sample. RT-PCR was performed using the ABI 7500 Fast Real-Time PCR System (Applied Biosystems, Branchburg, N.J., USA) using the following conditions: 30 min at 48° C. and 10 min at 95° C., followed by 40 cycles of 15 s at 95° C. and 1 min at 60° C. The data was analyzed using the ABI PRISM 7500 SDS software (version 1.3.1; Applied Biosystems). For absolute quantification, standard curves were generated using 10-fold dilutions of template preparations of known concentrations.

[4] = system: DENV-4 strain H241; test: Tetravalent RT-qPCR assay Protocol A, serotype 4 H241; settings: Dengue virus, DENV4, 72 h, RT-qPCR serotype 4 H241, Vero cells, day 3
Experimental: as §1, §2, §3

[5] = system: DENV-2 strain 16681; test: Tetravalent RT-qPCR assay Protocol A, serotype 2; settings: Dengue virus, DENV2, 72 h, RT-qPCR serotype 2 16681, Vero cells, day 3
Experimental: as §1, §2, §3

[6] = system: DENV-2 NGC-Tongalike; test: Tetravalent RT-qPCR assay Protocol B, serotype 2; settings: Dengue virus, DENV2, Vero, 96 h
Experimental: as §4

COc1cc(NC(C(=O)c2c[nH]c3c(F)cc(C)cc23)c2ccc(F)cc2OC)cc(OCCO)c1 (single isomer, unassigned) [Compound 12B, 2-(4-fluoro-2-methoxyphenyl)-1-(7-fluoro-5-methyl-1H-indol-3-yl)-2-((3-(2-hydroxyethoxy)-5-methoxyphenyl)amino)ethanone]
EC50 [1]: 20 nM
EC50 [2]: 270 nM
EC50 [3]: 96 nM
EC50 [4]: 290 nM
EC50 [5]: 8.1 nM
EC50 [6]: 1.7 nM

— patent US10206902B2, “Mono- or di-substituted indoles as dengue viral replication inhibitors” (priority 2014, dated 2019)
